Earlier results, collected in paper PMC4315033, “The regulation of muscle mass by endogenous glucocorticoids” (Frontiers in Physiology, 2015).
Each block holds one compound with its values, some of them ahead of it.

Assays:
[1] = test system: cultured myotubes; design: method as in Biedasek et al., 2011; settings: ref Biedasek et al., 2011
[2] = test system: GR
[3] = test system: TRAF6; design: method as in Sun et al., 2014; settings: pharmacologic doses; ref Sun et al., 2014
[4] = test system: cultured myotubes; design: method as in Lokireddy et al., 2012; settings: ref Lokireddy et al., 2012
[5] = test system: miR27a and b; design: method as in Allen and Loh, 2011; settings: ref Allen and Loh, 2011
[6] = test system: muscle atrophy; design: method as in Hu et al., 2009; settings: ref Hu et al., 2009
[7] = test system: GR^dim mice; design: method as in Reichardt et al., 1998; Tuckermann et al., 1999; settings: ref Reichardt et al., 1998, Tuckermann et al., 1999
[8] = test system: mineralocorticoid receptor; design: method as in Chapman et al., 2013; settings: ref Chapman et al., 2013
[9] = test system: muscle protein breakdown; design: method as in Zamir et al., 1992; settings: ref Zamir et al., 1992
[10] = test system: MAFbx, MuRF1, and Foxo1; design: method as in Braun et al., 2011; settings: inflammatory cytokines delivered directly into the brain; ref Braun et al., 2011
[11] = test system: muscle explants; design: method as in Tiao et al., 1996; settings: juvenile rats, explants harvested 16 h after CLP; ref Tiao et al., 1996
[12] = test system: MAFbx and MuRF1; design: method as in Frost et al., 2007; settings: adult rats, ref Frost et al., 2007
[13] = test system: muscle wasting; design: method as in Song et al., 2005; settings: angiotensin II infused at concentrations mimicking endogenous production in CKD, co-administration; ref Song et al., 2005
[14] = test system: other steroid receptors

- binding to the GR [2]: does not bind
SMILES: C[C@]12CCC(=O)C=C1CC[C@@H]1[C@@H]2C(=O)C[C@@]2(C)[C@H]1CC[C@]2(O)C(=O)CO [cortisone]
- proteolysis and atrophy in cultured myotubes [1]: capable of inducing

- muscle atrophy in diabetic adrenalectomized mice ([6]; same dose, streptozotocin-induced diabetes): restores normal muscle atrophy
SMILES: C[C@@H]1C[C@H]2[C@@H]3CCC4=CC(=O)C=C[C@]4(C)[C@@]3(F)[C@@H](O)C[C@]2(C)[C@@]1(O)C(=O)CO [dexamethasone]
- TRAF6 expression [3]: increase
- Mul1 expression [4]: induces
- mitophagy [4]: induces
- levels of miR27a and b in skeletal muscle [5]: decrease
- muscle atrophy, given in isolation ([6]; dose estimated to mimic endogenous concentrations in diabetic animals): insufficient to evoke substantial atrophy
- PMA-induced skin inflammation [7]: continued to suppress
- expression of genes regulating carbohydrate balance [7]: failed to alter

- affinity for mineralocorticoid receptor relative to GR [8]: higher affinity
SMILES: C[C@]12CCC(=O)C=C1CC[C@@H]1[C@@H]2[C@@H](O)C[C@@]2(C)[C@H]1CC[C@]2(O)C(=O)CO [Cortisol]

SMILES: CC#C[C@]1(O)CC[C@H]2[C@@H]3CCC4=CC(=O)CCC4=C3[C@@H](c3ccc(N(C)C)cc3)C[C@@]21C [mifepristone]
- half-life (in words) (in vivo): very short
- half-life (rodents, ref Heikinheimo et al., 1994): 1 to 2 h
- mortality ([9]; concurrent cytokine and mifepristone administration): ~50%
- induction of muscle protein degradation brought about by tumor necrosis factor (TNF) ([9]; concurrent mifepristone): attenuates
- proteolysis accompanied by interleukin-1 α administration ([9]; concurrent mifepristone): not blocked
- induction of MAFbx, MuRF1, and Foxo1 in muscle [10]: blocked
- tyrosine release from muscle explants [11]: significantly reduced
- induction of MAFbx and MuRF1 in septic rats ([12]; CLP, 24 h): failed to alter
- induction of MAFbx and MuRF1 by dexamethasone ([12]; similar time point): effectively blocking
- angiotensin II induced muscle wasting [13]: reversed
- activity at other steroid receptors [14]: has activity
